Experimental data: publication PMC11550998, “Novel 5-HT7 receptor antagonists modulate intestinal immune responses and reduce severity of colitis” (American Journal of Physiology - Gastrointestinal and Liver …, 2024)
Converted amounts (≈) assume the structure as drawn. Like-named read-outs stand apart in the source and are kept apart here.

Columns and labels:
[1] = Aqueous solubility (pH 7.4) assay, Millipore MultiScreen filter system; assay type: physicochemical; conditions: read-out: Sol (aqueous solubility)
Experimental: Compounds were assessed for their solubility at pH 7.4 using the commercially available Millipore MultiScreen Solubility filter system (Millipore, Billerica, MA). Analysis was performed by liquid chromatography-tandem mass spectrometry (LC-MS/MS).

[2] = target: T1, human 5HT7A-HEK membranes (Homo sapiens, UniProt P34969); experiment: 5-HT7 binding assay ([3H]LSD displacement); conditions: Cheng-Prusoff
T1 construct: expressed in transfected cells; host or cells: HEK cells (membranes)
Experimental: Solutions of test compounds were a 10 mM stock in dimethyl sulfoxide (DMSO) and then further diluted 1:200 in assay buffer [50 mM tris(hydroxymethyl)aminomethane (TRIS), pH 7.5, 10 mM MgCl2, 0.5 mM ethylenediaminetetraacetic acid (EDTA)] to 50 µM (0.5% DMSO). Ten dilutions of the test compound in 0.5% DMSO/assay buffer were prepared in a twofold serial dilution to yield final compound concentrations ranging from 10 µM to 19.5 nM in the assay. In a 96-well polypropylene plate, 50 µL of assay buffer was added to all wells, and then 50 µL of 0.5% DMSO/assay buffer or 50 µM chlorpromazine or serial dilutions of test compounds were added to selected wells. To all wells, 100 µL of 0.2 mg/mL human 5HT7A-HEK membranes and 50 µL of 5 nM [^3H]lysergic acid diethylamide (LSD) in assay buffer were added. Reactions were incubated at room temperature for 1.5 h and harvested by rapid filtration onto 0.3% polyethyleneimine-treated GF/B filter plates using a Brandel harvester. […] Filter plates were dried overnight, scintillant was added, and the radioactivity retained on the filters was counted on a TopCount scintillation counter (PerkinElmer). Half maximal inhibitory concentration (IC50) and inhibitory constant (Ki) of test compounds were calculated using GraphPad’s Prism 5 nonlinear sigmoidal curve-fitting program. […] Ki values were calculated using the Cheng-Prusoff equation.

[3] = target: human cytochrome P450 3A4 (Homo sapiens, UniProt P08684); experiment: Cytochrome P450 inhibition assay, 3A4 (testosterone substrate, LC-MS/MS); assay type: in vitro ADME; conditions: expressed enzyme, read-out: IC50 CYP3A4
Experimental: (§1) Compounds were assessed for their ability to inhibit human cytochrome P450 3A4 using testosterone as a substrate and LC-MS/MS analysis, whereas the 2D6 and 2C9 assays used fluorescent substrates and EnVision plate reader analysis. Expressed enzymes were used to minimize nonspecific binding and membrane partitioning issues ([15]).

CYP2D6 = CYP2D6 (Homo sapiens, UniProt P10635); experiment: Cytochrome P450 inhibition assay, 2D6 (fluorescent substrate); assay type: in vitro ADME; conditions: expressed enzyme
Experimental: as §1

[4] = Administration of antagonist in the absence of DSS; assay type: in vivo, mice; conditions: Supplemental Fig. S2
[5] = test system: acute DSS-induced colitis; experiment: Acute DSS-induced colitis model; assay type: in vivo, C57BL/6 mice
Description: C57BL/6 (Taconic, Cambridge City, IN) for the DSS model of colitis, as well as C57BL/6 and Rag1^−/− mice (Jackson Laboratory, Bar Harbor, ME) for the T-cell transfer model, were kept in sterilized, filter-topped cages under specific pathogen-free conditions upon arrival and fed autoclaved food. Male mice aged 8–10 wk were used for all experiments. Mice were acclimatized for 7 days before the start of any experiments. All experiments were approved by the animal ethics committee of McMaster University and conducted under Canadian guidelines for animal research.
For induction of acute colitis, DSS (molecular mass 40 kDa; ICN; Biomedicals Incorporate, Solon, OH) was added to autoclaved drinking water at a final concentration of 4 or 5% wt/vol for 5 days. For the induction of chronic colitis, DSS was added to normal drinking water at a final concentration of 4% for 5 days, followed by 7 days of water. This cycle was repeated twice thereafter, with 2% DSS. Control mice received vehicle or normal drinking water.
For acute DSS-induced colitis, C576BL/6 mice were treated with MC-170073 (10 mg/kg of body wt) or vehicle (10% DMSO in normal saline) via intraperitoneal injection once daily for 6 days, starting 1 day before the beginning of DSS. In a separate experiment, C57BL/6 mice were orally administered with MC-230078 (10 mg/kg) or vehicle twice daily for 5 days, starting from the beginning of DSS. For chronic DSS-induced colitis, C57BL/6 mice were treated with MC-170073 (10 mg/kg ip) or vehicle once daily for 6 days, starting 1 day before the beginning of the third cycle. Last, for CD4^+CD45RB^high T cell-induced chronic colitis, reconstituted Rag1^−/− mice were orally administered MC-230078 (5 mg/kg or 10 mg/kg) or a vehicle twice daily for 10 days starting from week 6 post-reconstitution of T cells.
Disease activity index (DAI) is a combined score of weight loss, stool consistency, and fecal bleeding and was blindly assessed using a previously published scoring system ([19]). This scoring system was defined as follows: weight loss: 0 = no loss; 1 = 1–5%; 2 = 5–10%; 3 = 10–20%; 4 = 20%+; stool, 0 = normal; 2 = loose stool; 4 = diarrhea; and bleeding: 0 = no blood; 2 = hemoccult positive (Hemoccult II; Beckman Coulter, Fullerton, CA); and 4 = gross blood (blood around anus). DAI was measured across all days of DSS treatment. Macroscopic damage scores were blindly scored using a previously published scoring system for DSS-induced colitis ([19]).
Colonic myeloperoxidase (MPO) levels were measured following a published protocol ([19]). Briefly, colonic tissue samples were homogenized in ice-cold 50 mmol·L^−1 potassium phosphate buffer containing 0.5% hexadecyl trimethyl ammonium bromide (pH = 6.0) (Sigma). Homogenates were centrifuged, the supernatant was removed, and an aliquot was then added to a solution containing potassium phosphate buffer, O-dianisidine, and hydrogen peroxide (Sigma-Aldrich). The absorbance was measured at 450 nm by a spectrophotometer (model EL808, BioTek). MPO level was expressed in units per milligram of tissue, where 1 U is defined as the quantity of enzyme able to convert 1 μmol hydrogen peroxide to water per minute at room temperature.
Segments of the proximal colon were washed with PBS, fixed in 10% neutral-buffered formalin, washed with ethanol, and embedded in paraffin. Hematoxylin-eosin (H&E)-stained colonic tissue sections were scored using a previously published system ([19]): crypt architecture (normal = 0; severe crypt distortion with loss of entire crypts = 3), degree of inflammatory cell infiltration (normal = 0; dense inflammatory infiltrate = 3), muscle thickening (base of crypt sits on the muscularis mucosae = 0; marked muscle thickening present = 3), goblet cell depletion (absent = 0; present = 1), and crypt abscess (absent = 0; present = 1). A breakdown of scoring criteria can be seen in Supplemental Table S1. The histological damage score is the sum of each individual score. […]

[6] = pH 7.4, aqueous buffer, kinetic from dmso stock
[7] = 4% DSS 5 days, 10 mg/kg ip once daily 6 days
[8] = 4% DSS 5 days, 10 mg/kg ip once daily 6 days, vs vehicle-treated mice
[9] = 5% DSS 5 days, 10 mg/kg orally twice daily 5 days
[10] = 5% DSS, 10 mg/kg orally twice daily 5 days
[11] = 5% DSS, 10 mg/kg orally twice daily, day 5 post-DSS vs vehicle

T1 sequence (P34969 1-445 isoform P34969-2): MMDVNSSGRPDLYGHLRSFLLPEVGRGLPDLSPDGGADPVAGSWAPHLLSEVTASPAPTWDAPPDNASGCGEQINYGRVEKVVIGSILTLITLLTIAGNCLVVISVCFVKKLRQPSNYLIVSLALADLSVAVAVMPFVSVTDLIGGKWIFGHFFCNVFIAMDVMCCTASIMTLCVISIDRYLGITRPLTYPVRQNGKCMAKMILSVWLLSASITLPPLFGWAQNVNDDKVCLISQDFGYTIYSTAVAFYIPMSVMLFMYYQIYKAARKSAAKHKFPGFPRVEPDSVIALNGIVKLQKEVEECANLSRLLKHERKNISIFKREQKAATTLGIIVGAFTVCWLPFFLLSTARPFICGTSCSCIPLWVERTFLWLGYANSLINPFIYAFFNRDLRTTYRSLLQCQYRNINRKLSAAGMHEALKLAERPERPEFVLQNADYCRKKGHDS
CYP2D6, sequence (P10635 whole entry): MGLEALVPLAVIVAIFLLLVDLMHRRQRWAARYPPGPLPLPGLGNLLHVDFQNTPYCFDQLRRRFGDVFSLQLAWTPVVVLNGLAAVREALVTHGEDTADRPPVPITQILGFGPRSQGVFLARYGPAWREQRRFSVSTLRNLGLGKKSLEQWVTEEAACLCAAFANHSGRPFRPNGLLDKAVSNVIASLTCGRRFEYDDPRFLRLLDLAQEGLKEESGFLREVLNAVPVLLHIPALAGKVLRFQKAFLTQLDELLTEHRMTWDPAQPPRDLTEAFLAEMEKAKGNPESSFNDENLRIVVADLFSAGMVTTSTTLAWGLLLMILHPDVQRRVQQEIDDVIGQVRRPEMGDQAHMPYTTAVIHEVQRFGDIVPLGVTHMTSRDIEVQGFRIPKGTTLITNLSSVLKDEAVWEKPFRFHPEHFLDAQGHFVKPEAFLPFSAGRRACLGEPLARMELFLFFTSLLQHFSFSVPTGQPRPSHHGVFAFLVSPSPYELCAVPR
human cytochrome P450 3A4, sequence (P08684 whole entry): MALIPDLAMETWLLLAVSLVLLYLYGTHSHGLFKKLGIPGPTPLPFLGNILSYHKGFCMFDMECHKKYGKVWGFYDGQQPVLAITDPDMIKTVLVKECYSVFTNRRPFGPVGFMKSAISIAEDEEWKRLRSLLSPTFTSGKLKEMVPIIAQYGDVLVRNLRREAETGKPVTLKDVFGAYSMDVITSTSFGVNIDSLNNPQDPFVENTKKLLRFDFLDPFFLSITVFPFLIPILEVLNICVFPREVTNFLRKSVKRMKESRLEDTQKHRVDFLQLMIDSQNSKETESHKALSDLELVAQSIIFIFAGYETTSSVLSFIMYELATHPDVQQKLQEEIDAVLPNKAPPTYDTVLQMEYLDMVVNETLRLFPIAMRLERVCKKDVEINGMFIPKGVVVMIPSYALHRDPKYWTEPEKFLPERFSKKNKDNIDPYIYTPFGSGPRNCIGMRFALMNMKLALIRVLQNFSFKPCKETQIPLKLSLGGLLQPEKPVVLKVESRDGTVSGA

solubility [1, 6] [µM] | solubility [1] [µM] | Ki [2] [µM] | IC50 [3] [µM] | IC50 (CYP2D6) [µM] | Compound | effect on body weight change, histology, or proinflammatory cytokine production [4] | colonic IL-1β level [5, 7] | colonic IL-6 level [5, 7] | colonic MPO level [5, 7] | colonic TNF-α level [5, 7] | DAI scores [5, 8] | histological damage scores [5, 8] | macroscopic scores [5, 8] | DAI [5, 9] | body weight change during DSS [5, 9] | colonic IL-1β level [5, 10] | colonic MPO level [5, 10] | histological scores [5, 11] | macroscopic scores [5, 11]
200 (≈ 69.3 µg/mL) | 168 (≈ 58.2 µg/mL) | 0.089 | > 10 | > 10 | CCC1(CC)CC(CCN2CCN(c3ccc(O)cc3)CC2)OC1=O (stereo not drawn) [MC-170073] | no significant effect | lower levels | lower levels | lower levels | lower levels | significantly lower | significantly less severe | lower |  |  |  |  |  | 
200 (≈ 69.3 µg/mL) |  | 0.106 | 9.46 | > 10 | CCC1(CC)C[C@@H](CCN2CCN(c3ccc(O)cc3)CC2)OC1=O [MC-230078] | no significant effect |  |  |  |  |  |  |  | significantly lower | no significant difference | significantly lower | significantly lower | significantly lower | significantly lower
